Results as given in publication PMC11063903, “Engineering a human P2X2 receptor with altered ligand selectivity in yeast” (The Journal of Biological Chemistry, 2024).

Columns and labels:
[1] = test system: P2X2 all variants at V60, including the V60L mutation; assay: Site-saturation screen, fast kinetic assay in yeast, V60 variants; format: cell-based, human; settings: 500 μM ATP f.c., ΔF/ΔT normalized to WT
Procedure: (§1) Figure 2 P2X2 SNP testing.A, homology model of P2X2 with the clinically implicated SNPs highlighted. V60 is highlighted in magenta and G353 is highlighted in dark blue. Lines indicate the positions of the mutations on each of the three monomers. B, zoomed view of the transmembrane region from the purple box in (A). V60 is magenta and G353 is dark blue. The structure is rotated 60° on the right image. C, screening data from site-saturation of the V60 residue in saturating ATP concentration (500 μM f.c.) using the fast kinetic assay. Signal onset values (ΔF/ΔT) are normalized to values from the WT receptor. […] Each of 2 to 3 replicates is represented as a single point. […]
(§2) GCaMP assays were performed as follows. […] Cells were loaded onto a black, clear bottom microplate and imaged on a FlexStation3 plate reader. […] Fluorescence was measured with an excitation at 485 nm, and emission 525 nm. […] For strains with mScarlet, fluorescence was read with excitation 570 nm/emission 610 nm. Slopes were calculated from the last 6 points of measurement and were normalized to the positive control samples. Any replicate in which the mScarlet value was measured to be over 2 standard deviations less than the mean for that set was discarded from further analysis.

[2] = target: T1, P2X2 G353 histidine substitution (G353H) (Homo sapiens, UniProt Q9UBL9, G353H); assay: Site-saturation screen, fast kinetic assay in yeast, G353 histidine; format: cell-based; settings: 500 μM ATP, ΔF/ΔT normalized to WT
T1 construct: expressed in transfected cells; host or cells: S. cerevisiae BY4741 background
T1 sequence (Q9UBL9 whole entry G353H): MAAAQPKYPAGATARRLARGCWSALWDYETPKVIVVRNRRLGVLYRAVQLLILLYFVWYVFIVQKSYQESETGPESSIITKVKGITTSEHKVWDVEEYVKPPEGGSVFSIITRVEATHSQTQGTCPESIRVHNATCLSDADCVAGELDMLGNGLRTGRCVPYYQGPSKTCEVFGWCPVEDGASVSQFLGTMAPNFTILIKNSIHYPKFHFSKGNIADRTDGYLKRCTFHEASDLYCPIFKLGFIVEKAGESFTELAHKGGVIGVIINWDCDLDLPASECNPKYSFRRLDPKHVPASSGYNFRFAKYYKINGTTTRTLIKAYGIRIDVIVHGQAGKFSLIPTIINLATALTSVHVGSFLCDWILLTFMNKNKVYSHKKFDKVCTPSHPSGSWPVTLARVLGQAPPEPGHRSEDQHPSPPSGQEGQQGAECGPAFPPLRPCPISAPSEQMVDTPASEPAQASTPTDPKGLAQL
Procedure: as §1, §2

[3] = target: T2, P2X2 N300T (Homo sapiens, UniProt Q9UBL9, N300T); assay: Site-saturation screen of ligand-binding domain with ATP, N300T; format: cell-based; settings: 500 μM ATP, ± sd
T2 construct: expressed in transfected cells; host or cells: S. cerevisiae BY4741 background
T2 sequence (Q9UBL9 whole entry N300T, the tested form may be a part): as the sequence (Q9UBL9 whole entry G353H) above, with N300T, H353G counted along it
Description: (§3) The yeast P2X2 screening platform poses an opportunity to probe the structure-function of the ligand-binding domain in detail. The conserved P2X “NFR” motif at residues 300 to 302 is directly involved in bonding to the ATP triphosphate moiety ([41]), so we mutagenized residues at or near this motif (298–304), ultimately covering 133 variants (7 sites, 19 residues each). […] We compared our results to phylogenetic data based on a multiple sequence alignment (MSA) from a curated set of 419 related P2X homologs (Figs. 3B, and S5; Table S1).
(§4) Figure 3 Structure-function analysis of the ligand binding domain.A, heat map summarizing the screening data of ATP with seven site-saturation libraries surrounding the NFR-motif. B, sequence-logo plot of the mutagenized residues and percent identity scores as determined from MSA. C, homology model of P2X2 colored by sequence conservation as calculated from a multiple sequence alignment of 419 related P2X genes. Conservation is scored on a log scale where maroon is more conserved and blue is less conserved. D, ATP in the ligand-binding pocket of P2X2. […]
(§5) GCaMP assays were performed as follows. […] Cells were loaded onto a black, clear bottom microplate and imaged on a FlexStation3 plate reader. […] Fluorescence was measured with an excitation at 485 nm, and emission 525 nm. […] For strains with mScarlet, fluorescence was read with excitation 570 nm/emission 610 nm. […]

[4] = target: T3, P2X2 N300S (Homo sapiens, UniProt Q9UBL9, N300S); assay: Site-saturation screen of ligand-binding domain with ATP, N300S; format: cell-based; settings: 500 μM ATP, ± sd
T3 construct: expressed in transfected cells; host or cells: S. cerevisiae BY4741 background
T3 sequence (Q9UBL9 whole entry N300S, the tested form may be a part): as the sequence (Q9UBL9 whole entry G353H) above, with N300S, H353G counted along it
Description: as §3, §4, §5

[5] = target: T4, P2X2 R302 glutamine (R302Q) (Homo sapiens, UniProt Q9UBL9, R302Q); assay: Site-saturation screen of ligand-binding domain with ATP, R302 glutamine; format: cell-based; settings: 500 μM ATP, ± sd
T4 construct: expressed in transfected cells; host or cells: S. cerevisiae BY4741 background
T4 sequence (Q9UBL9 whole entry R302Q, the tested form may be a part): as the sequence (Q9UBL9 whole entry G353H) above, with R302Q, H353G counted along it
Description: as §3, §4, §5

[6] = target: T5, P2X2 F303I (Homo sapiens, UniProt Q9UBL9, F303I); assay: Site-saturation screen of ligand-binding domain with ATP, F303I; format: cell-based; settings: 500 μM ATP, ± sd
T5 construct: expressed in transfected cells; host or cells: S. cerevisiae BY4741 background
T5 sequence (Q9UBL9 whole entry F303I, the tested form may be a part): as the sequence (Q9UBL9 whole entry G353H) above, with F303I, H353G counted along it
Description: as §3, §4, §5

[7] = target: T6, P2X2 F303L (Homo sapiens, UniProt Q9UBL9, F303L); assay: Site-saturation screen of ligand-binding domain with ATP, F303L; format: cell-based; settings: 500 μM ATP, ± sd
T6 construct: expressed in transfected cells; host or cells: Saccharomyces cerevisiae BY4741 derivative, genome-integrated, galactose-inducible
T6 sequence (Q9UBL9 whole entry F303L, the tested form may be a part): as the sequence (Q9UBL9 whole entry G353H) above, with F303L, H353G counted along it
Description: as §3, §4, §5

[8] = target: T7, P2X2 A304F (Homo sapiens, UniProt Q9UBL9, A304F); assay: Site-saturation screen of ligand-binding domain with ATP, A304F; format: cell-based; settings: 500 μM ATP, ± sd
T7 construct: expressed in transfected cells; host or cells: Saccharomyces cerevisiae BY4741 derivative, genome-integrated, galactose-inducible
T7 sequence (Q9UBL9 whole entry A304F, the tested form may be a part): as the sequence (Q9UBL9 whole entry G353H) above, with A304F, H353G counted along it
Description: as §3, §4, §5

[9] = target: T8, P2X2 A304I (Homo sapiens, UniProt Q9UBL9, A304I); assay: Site-saturation screen of ligand-binding domain with ATP, A304I; format: cell-based; settings: 500 μM ATP, ± sd
T8 construct: expressed in transfected cells; host or cells: Saccharomyces cerevisiae BY4741 derivative, genome-integrated, galactose-inducible
T8 sequence (Q9UBL9 whole entry A304I, the tested form may be a part): as the sequence (Q9UBL9 whole entry G353H) above, with A304I, H353G counted along it
Description: as §3, §4, §5

[10] = target: T9, P2X2 A304Y (Homo sapiens, UniProt Q9UBL9, A304Y); assay: Site-saturation screen of ligand-binding domain with ATP, A304Y; format: cell-based; settings: 500 μM ATP, ± sd
T9 construct: expressed in transfected cells; host or cells: Saccharomyces cerevisiae BY4741 derivative, genome-integrated, galactose-inducible
T9 sequence (Q9UBL9 whole entry A304Y, the tested form may be a part): as the sequence (Q9UBL9 whole entry G353H) above, with A304Y, H353G counted along it
Description: as §3, §4, §5

[11] = test system: P2X2; design: method as in PMID 10570044; settings: human glia; read-out: EC50, previously published value; cited from earlier work
[12] = target: T10, P2X2 A304W (Homo sapiens, UniProt Q9UBL9, A304W); assay: Fast GCaMP-mScarletI assay in yeast, P2X2 A304W; format: cell-based; settings: site-saturation screen, 500 μM ATP, ± sd
T10 construct: expressed in transfected cells; host or cells: S. cerevisiae BY4741 background
T10 sequence (Q9UBL9 1-471 A304W): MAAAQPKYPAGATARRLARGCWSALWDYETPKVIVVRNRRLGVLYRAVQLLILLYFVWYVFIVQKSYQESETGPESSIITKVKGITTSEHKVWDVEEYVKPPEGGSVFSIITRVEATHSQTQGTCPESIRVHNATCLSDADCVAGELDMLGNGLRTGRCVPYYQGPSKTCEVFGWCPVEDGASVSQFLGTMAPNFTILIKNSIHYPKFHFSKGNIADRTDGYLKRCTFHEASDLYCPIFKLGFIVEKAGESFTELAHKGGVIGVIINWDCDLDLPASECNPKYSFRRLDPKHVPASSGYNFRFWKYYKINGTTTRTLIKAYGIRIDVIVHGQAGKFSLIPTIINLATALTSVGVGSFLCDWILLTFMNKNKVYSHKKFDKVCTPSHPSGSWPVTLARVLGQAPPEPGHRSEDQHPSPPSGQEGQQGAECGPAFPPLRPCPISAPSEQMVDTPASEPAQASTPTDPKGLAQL

Which “response to ATP” value [1] does the source give for `Nc1ncnc2c1ncn2[C@@H]1O[C@H](COP(=O)(O)OP(=O)(O)OP(=O)(O)O)[C@@H](O)[C@H]1O` [ATP] here?
The value was “unresponsive”.

What about the “signaling, % of WT activity” value [2] of the same compound?
The value was 32%.

And the “signal, % of WT signaling” value [3]?
The value was 51 ± 10%.

And the “signal, % of WT signaling” value [4]?
Its value is 151 ± 16%.

And the “signal, % of WT signaling” value [5]?
The value was 25 ± 28%.

And the “signal, % of WT signaling” value [6]?
Its value is 90 ± 42%.

What about the “signal, % of WT signaling” value [7] of the same compound?
The value was 108 ± 89%.

And the “signal, % of WT signaling” value [8]?
The value was 57 ± 2.6%.

And the “signal, % of WT signaling” value [9]?
Its value is 24 ± 17%.

And the “signal, % of WT signaling” value [10]?
The value was 52 ± 10%.

And the EC50 [11]?
The EC50 was 6 µM.

What about the “signal, % of WT signaling” value [12] of the same compound?
The value was 125 ± 47%.
